Data reported in patent publication US20230183259A1, “Crystal Form Of Thiofuran Pyridazine Compound, Preparation Method Therefor And Application Thereof” (ZHEJIANG MEDICINE CO., LTD. XINCHANG PHARMACEUTICAL FACTORY, priority 2020, published 2023).

Assays:
Assay type in all cases: physicochemical
[1] = acceleration test (stability); details: relative humidity 75%±5%; for (%) Impurity B (%) / Crystal form / appearance / Enantiomer (%) / Impurity A (%) / Impurity C (%) / Loss on drying (%) / Single largest impurity (%) / Total relevant substances (%) / content(%): 40° C.±2° C.
Method: (§1) Stability tests were performed on the samples of Examples 1, 2, 3, 4 and 5. […] Please refer to the results of the acceleration test (40° C.±2° C., relative humidity 75%±5%) of Table 1 and the results of the long-term stability test (25° C.±2° C., relative humidity 60%±10%) of Table 2.

long-term stability test [2] = details: 25° C.±2° C., relative humidity 60%±10%
Method: as §1

long-term stability test [3] = details: 36 months, temperature 25° C. ±2° C.; relative humidity 60%±5%

(S)-2-(4-fluorophenyl)-4-(piperidine-3-aminomethyl)thieno[2,3-d]pyridazine-7-carboxamide hydrochloride [Example 110601-3]
99.5%: Content (calculated by dried product )(%) (long-term stability test [2]; 9 months, hydrochloride)
0.33%: Total relevant substances (%) ([1]; 3 months, hydrochloride)
0.08%: Enantiomer (%) ([1]; 6 months, hydrochloride) | Enantiomers (%) (long-term stability test [2]; 6 months, hydrochloride) | Enantiomers (%) (long-term stability test [2]; 12 months, hydrochloride) | Enantiomers (%) (long-term stability test [2]; 24 months)
0.09%: Enantiomer (%) ([1]; 0 month, hydrochloride) | Enantiomer (%) ([1]; 3 months, hydrochloride) | Enantiomers (%) (long-term stability test [2]; 0 month, hydrochloride) | Enantiomers (%) (long-term stability test [2]; 3 months, hydrochloride) | Enantiomers (%) (long-term stability test [2]; 9 months, hydrochloride)
0.37%: Total relevant substances (%) ([1]; 0 month, hydrochloride) | Total relevant substances (%) (long-term stability test [2]; 0 month, hydrochloride)
unchanged: Crystal form ([1]; 0 month) | Crystal form ([1]; 1 month) | Crystal form ([1]; 2 months) | Crystal form ([1]; 3 months) | Crystal form ([1]; 6 months) | Crystal form (long-term stability test [2]; 0 month) | Crystal form (long-term stability test [2]; 3 months) | Crystal form (long-term stability test [2]; 6 months) | Crystal form (long-term stability test [2]; 9 months) | Crystal form (long-term stability test [2]; 12 months) | Crystal form (long-term stability test [2]; 18 months) | Crystal form (long-term stability test [2]; 24 months) | Crystal form (long-term stability test [2]; 36 months)
99.7%: content(%) ([1]; 6 months, hydrochloride) | Content (calculated by dried product )(%) (long-term stability test [2]; 36 months, hydrochloride)
0.11%: Enantiomer (%) ([1]; 1 month, hydrochloride)
0.21%: Impurity A (%) ([1]; 6 months, hydrochloride)
0.39%: Total relevant substances (%) ([1]; 1 month, hydrochloride)
7.1%: Loss on drying (%) ([1]; 6 months, hydrochloride) | Loss on drying (%) (long-term stability test [2]; 3 months, hydrochloride) | Loss on drying (%) (long-term stability test [2]; 18 months, hydrochloride)
7.2%: Loss on drying (%) ([1]; 0 month, hydrochloride) | Loss on drying (%) ([1]; 1 month, hydrochloride) | Loss on drying (%) ([1]; 2 months, hydrochloride) | Loss on drying (%) ([1]; 3 months, hydrochloride) | Loss on drying (%) (long-term stability test [2]; 0 month, hydrochloride) | Loss on drying (%) (long-term stability test [2]; 6 months, hydrochloride) | Loss on drying (%) (long-term stability test [2]; 9 months, hydrochloride)
7.0%: Loss on drying (%) (long-term stability test [2]; 36 months, hydrochloride)
0.28%: Impurity A (%) ([1]; 0 month, hydrochloride) | Total relevant substances (%) ([1]; 6 months, hydrochloride) | ImpurityA(%) (long-term stability test [2]; 0 month, hydrochloride)
0.38%: Total relevant substances (%) ([1]; 2 months, hydrochloride) | Total relevant substances (%) (long-term stability test [2]; 9 months, hydrochloride)
98.6%: Content (calculated by dried product )(%) (long-term stability test [2]; 24 months, hydrochloride)
0.31%: Total relevant substances (%) (long-term stability test [2]; 18 months, hydrochloride)
0.26%: Impurity A (%) ([1]; 2 months, hydrochloride) | ImpurityA(%) (long-term stability test [2]; 3 months, hydrochloride) | ImpurityA(%) (long-term stability test [2]; 36 months, hydrochloride)
0.36%: Total relevant substances (%) (long-term stability test [2]; 36 months, hydrochloride)
0.00%: (%) Impurity B (%) ([1]; 0 month) | (%) Impurity B (%) ([1]; 3 months) | (%) Impurity B (%) ([1]; 6 months) | ImpurityB(%) (long-term stability test [2]; 0 month) | ImpurityB(%) (long-term stability test [2]; 3 months) | ImpurityB(%) (long-term stability test [2]; 6 months) | ImpurityB(%) (long-term stability test [2]; 18 months) | ImpurityB(%) (long-term stability test [2]; 24 months)
0.34%: Total relevant substances (%) (long-term stability test [2]; 24 months, hydrochloride)
yellow crystalline powder: appearance ([1]; 0 month) | appearance ([1]; 1 month) | appearance ([1]; 2 months) | appearance ([1]; 3 months) | appearance ([1]; 6 months) | appearance (long-term stability test [2]; 0 month, hydrochloride) | appearance (long-term stability test [2]; 3 months, hydrochloride) | appearance (long-term stability test [2]; 6 months, hydrochloride) | appearance (long-term stability test [2]; 9 months, hydrochloride) | appearance (long-term stability test [2]; 12 months, hydrochloride) | appearance (long-term stability test [2]; 18 months, hydrochloride) | appearance (long-term stability test [2]; 24 months, hydrochloride) | appearance (long-term stability test [2]; 36 months, hydrochloride)
0.35%: Total relevant substances (%) (long-term stability test [2]; 3 months, hydrochloride) | Total relevant substances (%) (long-term stability test [2]; 6 months, hydrochloride) | Total relevant substances (%) (long-term stability test [2]; 12 months, hydrochloride)
7.3%: Loss on drying (%) (long-term stability test [2]; 12 months, hydrochloride) | Loss on drying (%) (long-term stability test [2]; 24 months, hydrochloride)
0.01%: Single largest impurity (%) ([1]; 0 month, hydrochloride) | Single largest impurity (%) (long-term stability test [2]; 0 month, hydrochloride) | ImpurityB(%) (long-term stability test [2]; 9 months, hydrochloride) | ImpurityB(%) (long-term stability test [2]; 12 months) | ImpurityB(%) (long-term stability test [2]; 36 months, hydrochloride)
0.06%: Enantiomers (%) (long-term stability test [2]; 18 months, hydrochloride) | Enantiomers (%) (long-term stability test [2]; 36 months, hydrochloride)
99.9%: content(%) ([1]; 3 months, hydrochloride) | Content (calculated by dried product )(%) (long-term stability test [2]; 12 months, hydrochloride)
100.0%: content(%) ([1]; 1 month, hydrochloride)
0.1%: Enantiomer (%) ([1]; 2 months, hydrochloride)
0.25%: Impurity A (%) ([1]; 1 month, hydrochloride) | Impurity A (%) ([1]; 3 months, hydrochloride) | ImpurityA(%) (long-term stability test [2]; 6 months, hydrochloride) | ImpurityA(%) (long-term stability test [2]; 9 months, hydrochloride) | ImpurityA(%) (long-term stability test [2]; 12 months, hydrochloride) | ImpurityA(%) (long-term stability test [2]; 18 months, hydrochloride) | ImpurityA(%) (long-term stability test [2]; 24 months, hydrochloride)
99.6%: content(%) ([1]; 0 month, hydrochloride) | Content (calculated by dried product )(%) (long-term stability test [2]; 0 month, hydrochloride) | Content (calculated by dried product )(%) (long-term stability test [2]; 6 months, hydrochloride)
0.03%: (%) Impurity B (%) ([1]; 1 month, hydrochloride) | (%) Impurity B (%) ([1]; 2 months, hydrochloride) | Single largest impurity (%) ([1]; 2 months, hydrochloride) | Single largest impurity (%) (long-term stability test [2]; 3 months, hydrochloride) | Single largest impurity (%) (long-term stability test [2]; 6 months, hydrochloride) | ImpurityC(%) (long-term stability test [2]; 12 months, hydrochloride) | ImpurityC(%) (long-term stability test [2]; 18 months, hydrochloride)
101.1%: Content (calculated by dried product )(%) (long-term stability test [2]; 18 months, hydrochloride)
98.2%: content(%) ([1]; 2 months, hydrochloride)
0.02%: Impurity C (%) ([1]; 0 month, hydrochloride) | Impurity C (%) ([1]; 1 month) | Single largest impurity (%) ([1]; 1 month, hydrochloride) | Impurity C (%) ([1]; 2 months, hydrochloride) | Impurity C (%) ([1]; 3 months) | Single largest impurity (%) ([1]; 3 months, hydrochloride) | Impurity C (%) ([1]; 6 months) | Single largest impurity (%) ([1]; 6 months, hydrochloride) | ImpurityC(%) (long-term stability test [2]; 0 month, hydrochloride) | ImpurityC(%) (long-term stability test [2]; 3 months) | ImpurityC(%) (long-term stability test [2]; 6 months, hydrochloride) | ImpurityC(%) (long-term stability test [2]; 9 months) | Single largest impurity (%) (long-term stability test [2]; 9 months, hydrochloride) | Single largest impurity (%) (long-term stability test [2]; 12 months) | Single largest impurity (%) (long-term stability test [2]; 18 months) | ImpurityC(%) (long-term stability test [2]; 24 months) | Single largest impurity (%) (long-term stability test [2]; 24 months) | ImpurityC(%) (long-term stability test [2]; 36 months) | Single largest impurity (%) (long-term stability test [2]; 36 months)
100.2%: Content (calculated by dried product )(%) (long-term stability test [2]; 3 months, hydrochloride)

(S)-2-(4-fluorophenyl)-4-(piperidine-3-aminomethyl)thieno[2,3-d]pyridazine-7-carboxamide hydrochloride [Example 1]
no significant changes: changes in moisture, related substances, optical isomers and contents under storage conditions (long-term stability test [3]) | changes in moisture, related substances, optical isomers and contents under storage conditions ([1]; 6 months, temperature 40° C.±2° C.)
